Tests used:
Assay type in all cases: biochemical
c-Src-ES3 (T338C/V323S) = c-Src-ES3 (T338C/V323S) (Gallus gallus (Chicken), UniProt P00523, T338C/V323S); experiment: In vitro kinase assay, c-Src-ES3
Experimental: (§1) In vitro kinase assays for c-Src variants were performed in 50 mM Tris (pH 8.0), 10 mM MgCl2 and 1 mg/mL BSA. When obtaining kinetic parameters (kcat, Km) kinase and peptide substrate (IYGEFKKK) (SEQ ID NO:51) concentrations were 2 nM and 500 μM, respectively, while ATP concentrations ranged from 2000-0.655 μM. Addition of nonradioactive ATP supplemented with ^32P ATP (3,000 Ci/mmol, NEN) was used to initiate kinase reactions. Time points were selected such that product formation never exceeded 10%. Reactions were quenched by spotting 3 μL quantities onto phosphocellulose sheets (P81, Whatman). Afterwards, the sheets were washed 3×5 minutes in 0.5% phosphoric acid and dried. Radioactivity was measured by phosphorimaging and recorded on a Typhoon fluorescence imager (Molecular Dynamics). Data were plotted as rate (min^−1) versus ATP concentration and fitted to the Michaelis-Menten equation, v=[(kcat)[S]]/(Km+[S]), using Kaleidagraph software (Synergy) to extract kinetic parameters. When obtaining IC50 values for the inhibitors, 2% (v/v) DMSO was included in kinase reactions. In these cases ATP, peptide, and enzyme concentrations were 15 nM, 100 μM and 5 nM, respectively, while inhibitor concentrations ranged from 10,000-0.610 nM. In all cases, a ten-minute preincubation step between the kinase and the inhibitor preceded addition of ATP and a fifteen-minute reaction. The data was fitted to a sigmoidal dose-response curve using Prism 4.0c (GraphPad Software) to obtain IC50 values.

c-Src-ES2 (T338C/V323A) = c-Src-ES2 (T338C/V323A) (Gallus gallus (Chicken), UniProt P00523, T338C/V323A); experiment: In vitro kinase assay, c-Src-ES2
Experimental: as §1

307 kinases = experiment: Kinome-wide profiling (SelectScreen Kinase Profiling Service); conditions: compounds at 1 μM, ATP at Km,app
Experimental: The percent inhibition results in FIG. were generated with biochemical enzymatic kinase assays using the SelectScreen® Kinase Profiling Service (Life Technologies Corporation, Madison, Wis.). Compounds were assayed at 1 μM at an ATP concentration equal to the ATP Km,app for the assay following the detailed procedures described in the SelectScreen® Customer Protocol and Assay Conditions documents located at www.invitrogen.com/kinaseprofiling.
Compounds that were profiled include, but are not limited to, 3, 4, 9, 13, and 20. […] The exocyclic amine mimics N6 of ATP and plays an important role in a hydrogen bonding interaction with the hinge region of kinases.

CC(C)n1nc(Cc2cccc(C(=O)CF)c2)c2c(N)ncnc21 [Compound 13, 1-(3-((4-amino-1-isopropyl-1H-pyrazolo[3,4-d]pyrimidin-3-yl)methyl)phenyl)-2-fluoroethanone]
IC50 (c-Src-ES3 (T338C/V323S); ES3 = T338C/V323S, read-out: c-Src variant IC50 (nM) ES3): 29 nM
fold improvement in potency with V323S mutation (c-Src-ES3 (T338C/V323S); c-Src-ES3 relative to c-Src-ES1): 12 fold
IC50 (c-Src-ES2 (T338C/V323A); ES2 = T338C/V323A, read-out: c-Src variant IC50 (nM) ES2): 67 nM
change of inhibitor potency upon second-site Val323 mutations (c-Src-ES2 (T338C/V323A); c-Src-ES2 and c-Src-ES3 relative to c-Src-ES1): Enhanced inhibitor potency
fold increase in potency with V323A mutation (c-Src-ES2 (T338C/V323A); c-Src-ES2 relative to c-Src-ES1): 5 fold
off-target profile in kinome-wide screen (307 kinases): clean profile

— patent US9353116B2, “Methods and compositions for kinase inhibition” (THE REGENTS OF THE UNIVERSITY OF CALIFORNIA, priority 2010, dated 2016)
